Experimental data from patent publication US20240373849A1, “INSECT NEUROPEPTIDE ANALOGUES” (THE UNIVERSITY COURT OF THE UNIVERSITY OF GLASGOW, priority 2020, published 2024).
Several values for one entry are separate records, joined by “and”; a condition that tells them apart may be missing. Equal entries are not always repeated. Square brackets hold non-standard residues; d marks the D form. * marks the point of attachment. Guanidyl = -C(=N+Me2)NMe2 on the N-terminal amine (tetramethylguanidyl cap), CN(C)C(=[N+](C)C)*; Benzoyl(4-benzoyl) = O=C(c1ccccc1)c1ccc(C(=O)*)cc1; Palmitoyl = CCCCCCCCCCCCCCCC(=O)*; NMeA = CN[C@@H](C)C(=O)O

Key:
[1] = system: Drosophila suzukii larvae; assay: Drosophila suzukii larval feeding (Example 8; peptide screening); assay type: in vivo; set-up: key to D. suzukii (Sig Diff Grp): A indicates a significant difference in survival compared with control (blank).; B indicates a significant difference in survival compared with scrambled capa1.; C indicates a significant difference in survival compared with scrambled capa2; settings: Peptide screening, Table 5; for D. suzukii (Mean% Lethality ± SD): blank control 20.33; for D. suzukii (Sig Diff Grp): difference in survival
Procedure: First to Fourth generations of peptides were produced with varying structures and tested for CAPA receptor agonist activity, and screened for lethality in vivo against D. suzukii and M. persicae as per methods in example 2 and example 8. The top performing peptides were selected and gave rise to the list of CAPA1 and CAPA2 peptides provided above in Table 1 which were then further tested in the following applied examples.
Peptides were tested at concentrations ranging from [10^−4 M] to [10^−7 M] in a final volume of 200 μl of 0.8% agarose containing 0.09% m-Cresol purple pH marker dye (Sigma) and 5% sucrose (Sigma).
Agarose was melted in dH2O, before addition of sucrose and dye. The agarose/dye solution was then allowed to cool to 60° C. 96 well plates (flat-bottomed 3596 TC-plates; Corning) containing 20 μl volumes of neuropeptide per well were prepared, and 180 μl agarose/dye solution dispensed into each well via a Distriman repetitive micro-pipettor (Gilson). Controls contained 20 μl dH2O as a ‘sham’ treatment with 180 μl of the 0.8% agarose/dye solution. Plates were agitated at 800 rpm, to ensure mixing, at 60° C. (Eppendorf Thermomixer C). Plates were then allowed to cool, and agarose/dye solution solidify, prior to use.
Each peptide was assayed with a minimum of 7 to maximum 9 late L2/early L3 Spotted wing Drosophila, Drosophila suzukii, (feeding) larvae per well, minimum n=8 wells per peptide concentration and a minimum n=12 control wells per plate. The selected larvae were first washed 2× in ice cold Drosophila Schneider's liquid medium (ThermoFisher) before insertion into wells to remove extraneous food. After complete insertion of all larvae the plates were covered with breathable sealing membrane for multi-well plates (Sigma).
Larvae were assayed for lethality after 48 hr exposure at 21° C. and findings recorded. During examination the assay plate was kept on ice, to reduce larval locomotor activity (wandering), and larvae in each well were examined using a binocular stereomicroscope (Zeiss).
The water control group was used to determine baseline lethality. Results for neuropeptide analogues were calculated as % lethality in the remaining population after adjustment for the baseline. Results are shown in Tables 7 and 8 below, and in FIG. 1.

[2] = system: bumblebees (Bombus terrestris); assay: Bumblebee acute oral toxicity test; assay type: in vivo
Procedure: Oral toxicity against bumblebees (Bombus terrestris) was determined as previously described:
OECD (2017), Test No. 247: Bumblebee, Acute Oral Toxicity Test, OECD Guidelines for the Testing of Chemicals, Section 2, OECD Publishing, Paris, https://doi.org/10.1787/9789264284128-en.
Example data are provided for peptides, AH56, AH257, AH259 in Tables 4, 5 below. […]
Data were acquired for: feeding behaviour—weight of liquid consumed pre- and post-treatment; lethality (days).
There was no negative impact on feeding behaviour from capa peptides. Acute bumblebee toxicity was also assessed for other peptide candidates including: AH270, PEG270. Overall, capa peptides are bee safe.

[3] = Table 11, individual bees, peptide 1 × 10 − 5M or Spirotetramat 25 uM

Row | Molecule | D. suzukii (Mean% Lethality ± SD) [1] | D. suzukii (Sig Diff Grp) [1] | other results
1 | 4-Benzoyl benzoic-LVAFPRV-NH2 ({Benzoyl(4-benzoyl)}-LVAFPRV-NH2; SMILES CC(C)C[C@H](NC(=O)c1ccc(C(=O)c2ccccc2)cc1)C(=O)N[C@H](C(=O)N[C@@H](C)C(=O)N[C@@H](Cc1ccccc1)C(=O)N1CCC[C@H]1C(=O)N[C@@H](CCCNC(=N)N)C(=O)N[C@H](C(N)=O)C(C)C)C(C)C) [AH55] | 54.50% |  | 
2 | 4-Benzoyl benzoic-LYAFPRV-NH2 ({Benzoyl(4-benzoyl)}-LYAFPRV-NH2; SMILES CC(C)C[C@H](NC(=O)c1ccc(C(=O)c2ccccc2)cc1)C(=O)N[C@@H](Cc1ccc(O)cc1)C(=O)N[C@@H](C)C(=O)N[C@@H](Cc1ccccc1)C(=O)N1CCC[C@H]1C(=O)N[C@@H](CCCNC(=N)N)C(=O)N[C@H](C(N)=O)C(C)C) [AH49] | 41.13% | A | 
3 | CCOC(=O)OC1=C(c2cc(C)ccc2C)C(=O)N[C@]12CC[C@@H](OC)CC2 [Spirotetramat, reference compound] |  |  | Liquid post exposure (weight), Mean ([2]; Table 11, group mean, n=10): 1.109 g; liquid consumed per day post exposure, Mean ([2]; Table 11, group mean, n=10): 0.2773 g; Liquid post exposure (weight) [2, 3]: 0.7878 g and 1.2332 g and 0.2963 g and 1.7853 g and 1.2062 g and 2.1130 g and 0.6196 g and 0.7732 g and 1.3842 g and 0.8924 g; days alive [2, 3]: 4 days; liquid consumed per day post exposure [2, 3]: 0.1970 g and 0.3083 g and 0.0741 g and 0.4463 g and 0.3016 g and 0.5283 g and 0.1549 g and 0.1933 g and 0.3461 g and 0.2231 g
4 | O=[N+]([O-])NC1=NCCN1Cc1ccc(Cl)nc1 [imidacloprid, Imidacloprid, reference compound] |  |  | lethality of bumblebees ([2]; 28.3 uM, on day 1): 100%; dead? ([2]; Table 10, individual bees, peptide ×10−5M or imidacloprid 28.3 uM in 50% sucrose, 0.1% ATPlus): 1; Est weight sucrose consumed post testing/day ([2]; individual bees, peptide ×10−5M or imidacloprid 28.3 uM in 50% sucrose, 0.1% ATPlus): 0.0822 grams/day and 0.0000 grams/day and 0.0495 grams/day and 0.0562 grams/day and 0.2205 grams/day and 0.4394 grams/day; Feeding impacted? (+ve feeding increased post pep, −ve feeding decreased post pep) ([2]; individual bees, post minus pre testing sucrose consumption): −0.1179 grams/day and −0.1209 grams/day and −0.1306 grams/day and −0.3025 grams/day and −0.1495 grams/day and −0.1412 grams/day and 0.0704 grams/day and −0.3396 grams/day and 0.1955 grams/day and −0.2914 grams/day and −0.3507 grams/day; T-test outcome, sucrose consumed Pre vs Post ([2]; per treatment group): Feeding sig reduced
5 | Ac-LVAFPRV-NH2 [AH33] | 43.50% | A | 
6 | Ac-LYAFPRV-NH2 [AH32] | 41.50% | A | 
7 | Guanidyl-LV-(Me)A-FPRV-NH2 (Guanidyl-LV[NMeA]FPRV-NH2; SMILES CC(C)C[C@H](NC(N(C)C)=[N+](C)C)C(=O)N[C@H](C(=O)N(C)[C@@H](C)C(=O)N[C@@H](Cc1ccccc1)C(=O)N1CCC[C@H]1C(=O)N[C@@H](CCCNC(=N)N)C(=O)N[C@H](C(N)=O)C(C)C)C(C)C) [AH258] | 47.75% | A | 
8 | H-Nle-LYAFPRV-NH2 [AH51] | 38.63% | A | 
9 | Palmitoyl-LVAFPRV-NH2 (SMILES CCCCCCCCCCCCCCCC(=O)N[C@@H](CC(C)C)C(=O)N[C@H](C(=O)N[C@@H](C)C(=O)N[C@@H](Cc1ccccc1)C(=O)N1CCC[C@H]1C(=O)N[C@@H](CCCNC(=N)N)C(=O)N[C@H](C(N)=O)C(C)C)C(C)C) [AH59] | 44.13% | A | 
